Reference: patent US12240862B2, “Inhibitors of peptidylarginine deiminases” (Gilead Sciences, Inc., priority 2020, dated 2025)

Biological target: T1, human PAD4 (Homo sapiens, UniProt Q9UM07)
T1 construct: human PAD4 (NM_012387), A2P663, was PCR amplified; His-SUMO (N, cleaved yes); made in house; host or cells: E. coli BL21(DE3)
Assay: In vitro PAD4 BAEE biochemical assay
Details: human PAD4, BAEE substrate; 5 nM PAD4, 2 mM calcium chloride, 3 mM BAEE; geometric mean of multiple experiments
Procedure, shortened: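 Tag-free recombinant hPAD4 (5 nM), 2 mM CaCl2, 3 mM BAEE, 50 mM MOPS pH 7.6, 2 mM DTT; 30 min compound preincubation, 2 h reaction, all 25 °C. EDTA quench; ammonia read via o-phthalaldehyde amine coupling, 1 h.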

T1 sequence (Q9UM07 2-663): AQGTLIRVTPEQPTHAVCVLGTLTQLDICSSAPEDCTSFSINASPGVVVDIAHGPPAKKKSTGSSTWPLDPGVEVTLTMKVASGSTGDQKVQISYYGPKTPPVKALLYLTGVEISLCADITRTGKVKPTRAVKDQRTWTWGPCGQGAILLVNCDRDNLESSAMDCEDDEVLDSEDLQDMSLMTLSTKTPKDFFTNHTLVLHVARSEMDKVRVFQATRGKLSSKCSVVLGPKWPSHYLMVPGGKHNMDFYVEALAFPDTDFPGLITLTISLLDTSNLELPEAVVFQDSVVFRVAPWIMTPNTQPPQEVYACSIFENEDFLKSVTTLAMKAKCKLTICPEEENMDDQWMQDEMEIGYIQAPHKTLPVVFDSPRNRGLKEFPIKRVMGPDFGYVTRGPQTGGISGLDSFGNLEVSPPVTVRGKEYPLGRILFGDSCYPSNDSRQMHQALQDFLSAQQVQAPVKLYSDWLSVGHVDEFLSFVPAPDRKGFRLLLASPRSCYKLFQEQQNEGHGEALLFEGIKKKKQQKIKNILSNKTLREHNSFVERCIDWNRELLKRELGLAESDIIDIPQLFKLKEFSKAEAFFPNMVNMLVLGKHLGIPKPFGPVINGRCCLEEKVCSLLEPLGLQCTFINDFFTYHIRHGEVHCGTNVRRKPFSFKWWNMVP

IC50 [µM]	SMILES
0.698	COc1cc(C(=O)N2[C@H]3CC[C@@H]2[C@H](N)C3)cc2nc(-c3cc4ccc([C@@H](C)NC(=O)C56CC(CO5)C6)nc4n3CC3CC3)c(C)n12 [Example 132, ~{N}-[(1~{R})-1-[2-[7-[(1~{R},2~{R},4~{S})-2-amino-7-azabicyclo[2.2.1]heptane-7-carbonyl]-5-methoxy-3-methylimidazo [1,2-a]pyridin-2-yl]-1-(cyclopropylmethyl)pyrrolo [2,3-b]pyridin-6-yl]ethyl]-2-oxabicyclo[2.1.1]hexane-1-carboxamide]
1.61	COc1cc(C(=O)N[C@H]2CNC[C@H](F)C2)cc2nc(-c3cc4ccc(N(C(F)F)S(C)(=O)=O)nc4n3CC3CC3)c(C)n12 [Example 306, 2-[1-(cyclopropylmethyl)-6-[difluoromethyl (methylsulfonyl)amino]pyrrolo[2,3-b]pyridin-2-yl]-~{N}-[(3~{R},5~{R})-5-fluoropiperidin-3-yl]-5-methoxy-3-methylimidazo [1,2-a]pyridine-7-carboxamide]
0.0598	COc1cc(C(=O)N2[C@H]3CC[C@@H]2[C@H](N)C3)cc2nc(-c3cc4ccc([C@@H](C)NC(=O)C5(C)CC5)nc4n3CC3CC3)c(C)n12 [Example 151, ~{N}-[(1~{R})-1-[2-[7-[(1~{R},2~{R},4~{S})-2-amino-7-azabicyclo[2.2.1]heptane-7-carbonyl]-5-methoxy-3-methylimidazo [1,2-a]pyridin-2-yl]-1-(cyclopropylmethyl)pyrrolo [2,3-b]pyridin-6-yl]ethyl]-1-methylcyclopropane-1-carboxamide]
0.0849	COc1cc(C(=O)N2[C@H]3CC[C@@H]2[C@H](N)C3)cc2nc(-c3cc4ccc([C@@H](C)NC(=O)C56CCC(F)(CC5)CC6)nc4n3CC3CC3)c(C)n12 [Example 63, ~{N}-[(1~{R})-1-[2-[7-[(1~{R},2~{R}, 4~{S})-2-amino-7-azabicyclo[2.2.1]heptane-7-carbonyl]-5-methoxy-3-methylimidazo [1,2-a]pyridin-2-yl]-1-(cyclopropylmethyl)pyrrolo[2,3-b]pyridin-6-yl]ethyl]-4-fluorobicyclo[2.2.2] octane-1-carboxamide]
0.115	CCc1ccc2cc(-c3nc4cc(C(=O)N5[C@H]6CC[C@@H]5[C@H](N)C6)cc(OC)n4c3C)n(CC3CC3C)c2n1 (stereo partly drawn) [Example 503, [(1~{R},2~{R},4~{S})-2-amino-7-azabicyclo [2.2.1]heptan-7-yl]-[2-[6-ethyl-1-[(2-methylcyclopropyl)methyl]pyrrolo[2,3-b]pyridin-2-yl]-5-methoxy-3-methylimidazo[1,2-a]pyridin-7-yl]methanone]
5.66	COc1cc(C(=O)N2C[C@@H]3CCC[C@H]2[C@H]3N)cc2nc(-c3cc4ccc(N(C(F)F)S(C)(=O)=O)nc4n3CC3CC3)c(C)n12 [Example 329, N-[2-[7-[(1S,5S,8S)-8-amino-6-azabicyclo[3.2.1]octane-6-carbonyl]-5-methoxy-3-methyl-imidazo[1,2-a]pyridin-2-yl]-1-(cyclopropylmethyl)pyrrolo [2,3-b]pyridin-6-yl]-N-(difluoromethyl) methanesulfonamide]
0.0512	COc1cc(C(=O)N2[C@H]3CC[C@@H]2[C@H](N)C3)cc2nc(-c3cc4ccc([C@@H](C)NC(=O)c5cnn(C(C)(C)C)c5)nc4n3CC3CC3)c(C)n12 [Example 82, ~{N}-[(1~{R})-1-[2-[7-[(1~{R},2~{R},4~{S})-2-amino-7-azabicyclo[2.2.1]heptane-7-carbonyl]-5-methoxy-3-methylimidazo [1,2-a]pyridin-2-yl]-1-(cyclopropylmethyl)pyrrolo [2,3-b]pyridin-6-yl]ethyl]-1-~{tert}-butylpyrazole-4-carboxamide]
0.305	CCCO[C@@H]1CCN(C(=O)c2cc(OC)n3c(C)c(-c4cc5ccc([C@@H](C)NC(=O)c6ccccc6)nc5n4CC4CC4)nc3c2)C[C@@H]1N [Example 111, ~{N}-[(1~{R})-1-[2-[7-[(3~{S},4~{R})-3-amino-4-propoxypiperidine-1-carbonyl]-5-methoxy-3-methylimidazo[1,2-a]pyridin-2-yl]-1-(cyclopropylmethyl)pyrrolo [2,3-b]pyridin-6-yl]ethyl] benzamide]
0.0332	COc1cc(C(=O)N2[C@H]3CC[C@@H]2[C@H](N)C3)cc2nc(-c3cc4ccc([C@@H](C)NC(=O)C5CCOCC5)nc4n3CC3CC3)c(C3CC3)n12 [Example 98]
0.0652	COc1cc(C(=O)N2[C@H]3CC[C@@H]2[C@H](N)C3)cc2nc(-c3cc4ccc([C@@H](C)NC(=O)N5CC(O)C5)nc4n3CC3CC3)c(C)n12 [Example 227, ~{N}-[(1~{R})-1-[2-[7-[(1~{R},2~{R},4~{S})-2-amino-7-azabicyclo[2.2.1]heptane-7-carbonyl]-5-methoxy-3-methylimidazo [1,2-a]pyridin-2-yl]-1-(cyclopropylmethyl)pyrrolo [2,3-b]pyridin-6-yl]ethyl]-3-hydroxyazetidine-1-carboxamide]
0.0344	COc1cc(C(=O)N2[C@H]3CC[C@@H]2[C@H](N)C3)cc2nc(-c3cc4ccc(N5CCN(C)CCS5(=O)=O)nc4n3CC3CC3)c(C)n12 [Example 443, [(1~{R},2~{R},4~{S})-2-amino-7-azabicyclo [2.2.1]heptan-7-yl]-[2-[1-(cyclopropylmethyl)-6-(5-methyl-1,1-dioxo-1,2,5-thiadiazepan-2-yl)pyrrolo[2,3-b]pyridin-2-yl]-5-methoxy-3-methylimidazo [1,2-a]pyridin-7-yl] methanone]
0.521	COc1cc(C(=O)N2CCC[C@@H](N)C2)cc2nc(-c3cc4ccc([C@@H](C)NCC(F)(F)F)nc4n3CC3CC3)c(C)n12 [Example 267, [(3~{R})-3-aminopiperidin-1-yl]-[2-[1-(cyclopropylmethyl)-6-[(1~{R})-1-(2,2,2-trifluoroethylamino)ethyl]pyrrolo[2,3-b]pyridin-2-yl]-5-methoxy-3-methylimidazo[1,2-a]pyridin-7-yl]methanone]
0.11	COc1cc(C(=O)N2[C@H]3CC[C@@H]2[C@H](N)C3)cc2nc(-c3cc4ccc(C(C)(C)O)nc4n3CC3CC3)c(C)n12 [Example 574, [(1~{R},2~{R},4~{S})-2-amino-7-azabicyclo [2.2.1]heptan-7-yl]-[2-[1-(cyclopropylmethyl)-6-(2-hydroxypropan-2-yl)pyrrolo [2,3-b]pyridin-2-yl]-5-methoxy-3-methylimidazo[1,2-a]pyridin-7-yl]methanone]
0.666	COc1cc(C(=O)N2CCC[C@@H](N)C2)cc2nc(-c3cc4ccc(-c5ccnc6c5CC(=O)N6)nc4n3CC3CC3)c(C)n12 [Example 600, 4-[2-[7-[(3~{R})-3-aminopiperidine-1-carbonyl]-5-methoxy-3-methylimidazo[1,2-a]pyridin-2-yl]-1-(cyclopropylmethyl)pyrrolo[2,3-b]pyridin-6-yl]-1,3-dihydropyrrolo[2,3-b] pyridin-2-one]
0.0883	COc1cc(C(=O)N2[C@H]3CC[C@@H]2[C@H](N)C3)cc2nc(-c3cc4ccc([C@@H](C)NC(=O)c5ccon5)nc4n3CC3CC3)c(C)n12 [Example 104, ~{N}-[(1~{R})-1-[2-[7-[(1~{R},2~{R},4~{S})-2-amino-7-azabicyclo[2.2.1]heptane-7-carbonyl]-5-methoxy-3-methylimidazo [1,2-a]pyridin-2-yl]-1-(cyclopropylmethyl)pyrrolo [2,3-b]pyridin-6-yl]ethyl]-1,2-oxazole-3-carboxamide]
